Measured values published in ChEMBL document CHEMBL5247614, “An overview of aryl hydrocarbon receptor ligands in the Last two decades (2002-2022): A medicinal chemistry perspective” (Eur J Med Chem, 2022).
Each block holds one molecule with its values, some of them ahead of it.

Legend:
[1] = molecular target: T1, Aryl hydrocarbon receptor (Homo sapiens, UniProt P35869); assay: Antagonist activity at AhR (unknown origin)
T1 sequence (P35869 whole entry): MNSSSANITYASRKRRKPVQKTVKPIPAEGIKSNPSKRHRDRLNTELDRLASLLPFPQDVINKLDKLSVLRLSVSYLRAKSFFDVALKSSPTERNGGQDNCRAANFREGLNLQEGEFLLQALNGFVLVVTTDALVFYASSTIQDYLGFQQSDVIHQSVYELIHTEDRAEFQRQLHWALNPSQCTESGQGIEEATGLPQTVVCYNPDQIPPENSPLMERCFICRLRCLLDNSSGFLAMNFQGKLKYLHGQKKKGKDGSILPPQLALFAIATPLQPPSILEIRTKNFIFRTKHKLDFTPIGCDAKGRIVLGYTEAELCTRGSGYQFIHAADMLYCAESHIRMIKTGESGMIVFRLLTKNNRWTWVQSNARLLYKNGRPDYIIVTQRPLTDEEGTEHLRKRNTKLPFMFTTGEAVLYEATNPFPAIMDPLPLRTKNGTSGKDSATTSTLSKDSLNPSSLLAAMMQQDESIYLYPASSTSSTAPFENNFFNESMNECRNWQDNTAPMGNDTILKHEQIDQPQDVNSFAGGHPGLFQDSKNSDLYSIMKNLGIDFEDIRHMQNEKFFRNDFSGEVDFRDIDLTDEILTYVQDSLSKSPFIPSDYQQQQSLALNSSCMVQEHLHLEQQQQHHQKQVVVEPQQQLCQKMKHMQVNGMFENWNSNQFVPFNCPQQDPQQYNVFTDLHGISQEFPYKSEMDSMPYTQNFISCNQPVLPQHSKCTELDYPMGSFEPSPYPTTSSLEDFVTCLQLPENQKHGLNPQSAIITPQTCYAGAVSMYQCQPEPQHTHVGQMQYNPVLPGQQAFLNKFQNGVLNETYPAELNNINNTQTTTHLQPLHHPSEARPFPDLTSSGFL

[2] = molecular target: T1, Aryl hydrocarbon receptor; assay: Antagonist activity at AhR (unknown origin) expressed in human U87 cells assessed as inhibition of kynurenic acid-induced transactivation by Renilla/Firefly based dual-glo luciferase assay; format: cell-based
[3] = Inhibition of kynurenic acid-induced CYP1A1 gene expression in human U-937 cells by qPCR analysis; format: ADME, cell-based
[4] = molecular target: T1, Aryl hydrocarbon receptor; assay: Binding affinity to AhR (unknown origin) assessed as dissociation constant
[5] = molecular target: T1, Aryl hydrocarbon receptor; assay: Agonist activity at AhR (unknown origin)
[6] = test system: Saccharomyces cerevisiae; assay: Activation of transcription in yeast expressing AhR and ARNT; format: functional, organism-based
[7] = molecular target: T1, Aryl hydrocarbon receptor; assay: Antagonist activity at AhR (unknown origin) assessed as inhibition of TCDD-induced luciferase activity
[8] = molecular target: T2, Aryl hydrocarbon receptor (Rattus norvegicus, UniProt P41738); assay: Antagonist activity at AhR in rat liver cytosol assessed as inhibition of TCDD-induced AhR/DNA complex formation by gel retardation assay; format: subcellular
T2 sequence (P41738 whole entry): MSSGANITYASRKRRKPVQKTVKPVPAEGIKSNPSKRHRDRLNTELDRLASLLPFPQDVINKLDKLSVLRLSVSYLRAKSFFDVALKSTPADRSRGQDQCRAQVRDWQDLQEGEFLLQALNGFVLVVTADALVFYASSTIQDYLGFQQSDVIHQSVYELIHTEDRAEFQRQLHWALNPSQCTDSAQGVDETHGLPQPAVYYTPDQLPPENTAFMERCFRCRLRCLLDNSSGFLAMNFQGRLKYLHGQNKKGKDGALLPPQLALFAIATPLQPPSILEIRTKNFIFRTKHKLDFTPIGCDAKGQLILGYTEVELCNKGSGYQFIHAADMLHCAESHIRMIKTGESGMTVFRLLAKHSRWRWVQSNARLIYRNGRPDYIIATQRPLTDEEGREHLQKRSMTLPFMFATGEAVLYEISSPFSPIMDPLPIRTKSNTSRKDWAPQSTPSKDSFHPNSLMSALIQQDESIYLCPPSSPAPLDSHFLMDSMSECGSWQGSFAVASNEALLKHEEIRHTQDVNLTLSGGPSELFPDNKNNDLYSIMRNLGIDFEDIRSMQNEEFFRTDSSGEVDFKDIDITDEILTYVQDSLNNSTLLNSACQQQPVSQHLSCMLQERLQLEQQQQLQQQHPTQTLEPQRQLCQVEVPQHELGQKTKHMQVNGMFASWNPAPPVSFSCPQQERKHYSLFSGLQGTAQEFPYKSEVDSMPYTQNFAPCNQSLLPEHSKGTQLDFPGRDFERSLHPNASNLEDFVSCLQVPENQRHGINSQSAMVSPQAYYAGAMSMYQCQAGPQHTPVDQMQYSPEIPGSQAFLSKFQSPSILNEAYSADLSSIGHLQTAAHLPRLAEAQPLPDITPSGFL

[9] = molecular target: T2, Aryl hydrocarbon receptor; assay: Inhibition of TCDD binding to rat liver cytosol AhR; format: subcellular
[10] = molecular target: T1, Aryl hydrocarbon receptor; assay: Antagonist activity at AhR (unknown origin) assessed as inhibition of receptor activation
[11] = molecular target: T1, Aryl hydrocarbon receptor; assay: Activation of human AhR expressed in Saccharomyces cerevisiae YCM3 coexpressing ARNT incubated for 18 hrs
[12] = test system: CYP1A1; assay: Upregulation of CYP1A1 gene expression in human MDA-MB-468 cells transfected with XRE plasmid containing AhR responsive luciferase construct and renilla luciferase assessed as fold change in gene expression at 1 uM incubated for 1 hr by dual-glo luciferase assay relative to control; format: ADME, cell-based; conditions: read-out: FC
[13] = test system: CYP1A1; assay: Upregulation of CYP1A1 gene expression in human MDA-MB-468 cells transfected with XRE plasmid containing AhR responsive luciferase construct and renilla luciferase assessed as fold change in gene expression at 1 uM incubated for 24 hrs by dual-glo luciferase assay relative to control; format: ADME, cell-based; conditions: read-out: FC
[14] = molecular target: T1, Aryl hydrocarbon receptor; assay: Modulator activity at AhR (unknown origin)
[15] = molecular target: T1, Aryl hydrocarbon receptor

SMILES: Cc1[nH]c2c(C)cccc2c1C
IC50 [1]: 12000 nM

SMILES: CC(CO)NC(=O)c1cc(-c2ccc(Cl)cc2)nn(-c2cccc(F)c2)c1=O (centres undefined)
IC50 [2]: 39.9 nM
IC50 [3]: 70700 nM

SMILES: O=c1c(Cc2c[nH]c3ccccc23)nccc2c1[nH]c1ccccc12
EC50 [5]: 12 nM

SMILES: c1ccc2[nH]ccc2c1 [INDOLE]
EC50 [6]: 300000 nM

SMILES: O=C(NCC(O)C(F)(F)F)c1cc(-c2ccc(OC(F)(F)F)cc2)nn(-c2cccnc2)c1=O (centres undefined)
IC50 [1]: 82.2 nM

SMILES: O=C(O)Cc1c[nH]c2ccccc12 [INDOLE-3-ACETIC ACID]
EC50 [6]: 300000 nM

SMILES: Cc1ccccc1/N=N/c1ccc(NC(=O)c2ccnn2C)c(C)c1
IC50 [7]: 30 nM

SMILES: c1ccc2c(c1)Nc1nc3ccccc3c3ccnc-2c13
EC50 [5]: 0.01 nM

SMILES: Cc1[nH]c2ccccc2c1C
IC50 [1]: 11000 nM

SMILES: O=C1CC(C(=O)O)c2c1oc(=O)c1cc(O)c(O)c(O)c21 (centres undefined)
EC70 [10]: 3900 nM

SMILES: Clc1cc2c(cc1Cl)Oc1cc(Cl)c(Cl)cc1O2 [2,3,7,8-TETRACHLORODIBENZO-P-DIOXIN]
EC50 [11]: 9 nM

SMILES: N[C@@H](Cc1c[nH]c2ccccc12)C(=O)O [TRYPTOPHAN]
EC50 [6]: 300000 nM

SMILES: NCCc1c[nH]c2ccccc12 [TRYPTAMINE]
EC50 [6]: 300000 nM

Next, values leading:

Kd [4]: 50 nM
SMILES: CCS(=O)(=O)c1ccc2oc(-c3ccc4ccccc4c3)nc2c1 [EZUTROMID]

IC50 [8]: 1000 nM
IC50 [9]: 4000 nM
SMILES: COc1ccc(-c2coc3ccccc3c2=O)cc1N

fold induction at 1 h, 1 µM [12]: 25
fold induction at 24 h, 1 µM [13]: 250
SMILES: Nc1ccccc1N1C(=O)c2cccc3cccc(c23)C1=O

IC50 [1]: < 500 nM
SMILES: CC(C)c1cnn2c(N[C@@H]3CCc4[nH]c5ccccc5c4C3)nc(-c3cncc(F)c3)nc12

Kd [4]: 90 nM
EC50 [14]: 78000 nM
SMILES: c1ccc2c(Cc3c[nH]c4ccccc34)c[nH]c2c1 [ARUNDINE]

IC50 [15]: 127 nM
SMILES: CC(C)n1cnc2c(NCCc3ccc(O)cc3)nc(-c3csc4ccccc34)nc21

Kd [4]: 0.19 nM
SMILES: c1ccc2c(c1)[nH]c1cc3c(cc12)[nH]c1ccccc13
